Measurements from US8383683B2, “Pharmaceutical use of substituted amides” (High Point Pharmaceuticals, LLC, priority 2007, dated 2013).

Experiments:
11βHSD1 [1] = molecular target: T1, 11βHSD1 (Homo sapiens, UniProt P28845); test: 11βHSD1 enzyme assay (SPA, 3H-cortisone to 3H-cortisol); type: biochemical; parameters: An extract of yeast transformed with h-11βHSD1 (Hutt et al., FEBS Lett., 441, 25 (1998)) was used as the source of enzyme; made in house; conditions: extract of yeast transformed with h-11βHSD1; 120 nM 3H-cortisone, 4 mM β-NADPH, 60 min at 30° C.
T1 sequence (P28845 whole entry): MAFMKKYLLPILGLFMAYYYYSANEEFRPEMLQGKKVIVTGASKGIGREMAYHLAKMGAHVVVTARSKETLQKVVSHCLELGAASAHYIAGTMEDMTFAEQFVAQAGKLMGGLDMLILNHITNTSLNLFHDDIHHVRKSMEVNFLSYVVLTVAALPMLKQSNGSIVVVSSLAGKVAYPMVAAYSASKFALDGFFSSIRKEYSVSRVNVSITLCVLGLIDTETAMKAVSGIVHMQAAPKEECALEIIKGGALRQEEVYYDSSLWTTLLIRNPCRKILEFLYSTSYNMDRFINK
Experimental: Pharmacological Methods 11βHSD1 Enzyme Assay Materials
^3H-cortisone and anti-rabbit Ig coated scintillation proximity assay (SPA) beads were purchased from Amersham Pharmacia Biotech, β-NADPH was from Sigma and rabbit anti-cortisol antibodies were from Fitzgerald. An extract of yeast transformed with h-11βHSD1 (Hutt et al., FEBS Lett., 441, 25 (1998)) was used as the source of enzyme. The test compounds were dissolved in DMSO (10 mM). All dilutions were performed in a buffer containing 50 mM TRIS-HCl (Sigma Chemical Co), 4 mM EDTA (Sigma Chemical Co), 0.1% BSA (Sigma Chemical Co), 0.01% Tween-20 (Sigma Chemical Co) and 0.005% bacitracin (Novo Nordisk NS), pH=7.4. Optiplate 96 wells plates were supplied by Packard. The amount of ^3H-cortisol bound to the SPA beads was measured on TopCount NXT, Packard.
h-11βHSD1, 120 nM ^3H-cortisone, 4 mM β-NADPH, antibody (1:200), serial dilutions of test compound and SPA particles (2 mg/well) were added to the wells. The reaction was initiated by mixing the different components and was allowed to proceed under shaking for 60 min at 30° C. The reaction was stopped be the addition of 10 fold excess of a stopping buffer containing 500 μM carbenoxolone and 1 μM cortisone. Data was analysed using GraphPad Prism software.

11βHSD1 [2] = molecular target: T1, 11βHSD1; parameters: host or cells: human volunteers and patients (in vivo); conditions: lean healthy volunteers and people with type 2 diabetes; cited from earlier work

Work on CC(C)N(C(=O)CCCOc1ccccc1)C1C2CC3CC1CC(O)(C3)C2 (stereo not shown) [Example 1-49, N-(5-Hydroxy-adamantan-2-yl)-N-isopropyl-4-phenoxy-butyramide] yielded an IC50 (11βHSD1 [1]) of 141 nM.
In the case of CCN(C(=O)CCCOc1ccccc1)C1C2CC3CC1CC(O)(C3)C2 (stereo not shown) [Example 1-51, N-Ethyl-N-(5-hydroxy-adamantan-2-yl)-4-phenoxy-butyramide], the IC50 (11βHSD1 [1]) is reported as 61 nM.
COC(=O)C12CC3CC(CC(NC(=O)CCCOc4ccccc4)(C3)C1)C2 [Example 1-52, 3-(4-Phenoxy-butyryl-amino)-adamantane-1-carboxylic acid methyl ester] showed an IC50 (11βHSD1 [1]) of 54 nM.
Work on O=C(CCCOc1ccccc1)NC12CC3CC(C1)CC(C(=O)O)(C3)C2 [Example 1-53, 3-(4-Phenoxy-butyryl-amino)-adamantane-1-carboxylic acid] yielded an IC50 (11βHSD1 [1]) of 194 nM.
With O=C(CCCOc1ccccc1)NC1C2CC3CC1CC(CO)(C3)C2 (stereo not shown) [Example 1-54, N-(5-Hydroxymethyl-adamantan-2-yl)-4-phenoxy-butyramide] the IC50 (11βHSD1 [1]) was 10 nM.
In the case of O=C(CCCOc1ccc(Cl)cc1Cl)NC1C2CC3CC1CC(CO)(C3)C2 (stereo not shown) [Example 1-55, 4-(2,4-Dichloro-phenoxy)-N-(5-hydroxy-methyl-adamantan-2-yl)-butyramide], the IC50 (11βHSD1 [1]) is reported as 2 nM.
In the case of CC(C)N(C(=O)CCCOc1ccc(Cl)cc1Cl)C1C2CC3CC1CC(O)(C3)C2 (stereo not shown) [Example 1-56, 4-(2,4-Dichloro-phenoxy)-N-(5-hydroxy-adamantan-2-yl)-N-isopropyl-butyramide], the IC50 (11βHSD1 [1]) is reported as 322 nM.
With CN(C(=O)CCCOc1ccc(Cl)cc1Cl)[C@H]1CCCC[C@@H]1O [Example 1-57, 4-(2,4-Dichloro-phenoxy)-N-((1S,2S)-2-hydroxy-cyclohexyl)-N-methyl-butyramide] the IC50 (11βHSD1 [1]) was 628 nM.
For CN(C(=O)CCCOc1ccc(Cl)cc1Cl)C1CCCC(C(=O)O)C1 (stereo not shown) [Example 1-58, 3-{[4-(2,4-Dichloro-phenoxy)-butyryl]-methyl-amino}-cyclo-hexanecarboxylic acid], the IC50 (11βHSD1 [1]) was 55 nM.
Molecule CN(C(=O)CCCOc1ccc(Cl)cc1Cl)C1CCCC(CO)C1 (stereo not shown) [Example 1-59, 4-(2,4-Dichloro-phenoxy)-N-(3-hydroxy-methyl-cyclo-hexyl)-N-methyl-butyramide] has an IC50 (11βHSD1 [1]) of 3 nM.
In the case of CN(C(=O)CCCOc1ccc(Cl)cc1Cl)C1CCC(CO)CC1 (stereo not shown) [Example 1-60, 4-(2,4-Dichloro-phenoxy)-N-(4-hydroxy-methyl-cyclohexyl)-N-methyl-butyramide], the IC50 (11βHSD1 [1]) is reported as 1 nM.
Work on CN(C(=O)CCCOc1ccc(Cl)cc1Cl)C1CCCC(O)C1 (stereo not shown) [Example 1-61, 4-(2,4-Dichloro-phenoxy)-N-(3-hydroxy-cyclohexyl)-N-methyl-butyramide] yielded an IC50 (11βHSD1 [1]) of 56 nM.
With CN(C(=O)CCCOc1ccc(Cl)cc1Cl)[C@H]1CCCC[C@@H]1CO [Example 1-62, 4-(2,4-Dichloro-phenoxy)-N-((S)-2-hydroxymethyl-cyclo-hexyl)-N-methyl-butyramide] the IC50 (11βHSD1 [1]) was 123 nM.
CN(C(=O)CCCOc1ccc(Cl)cc1Cl)C1CC2CC1CC2O (stereo not shown) [Example 1-64, 4-(2,4-Dichloro-phenoxy)-N-(5-hydroxy-bicyclo[2.2.1]hept-2-yl)-N-methyl-butyramide] gave an IC50 (11βHSD1 [1]) of 2 nM.
With CN(C(=O)CCCOc1ccc(Cl)cc1Cl)C1C2CC3CC1CC(CO)(C3)C2 (stereo not shown) [Example 1-65, 4-(2,4-Dichloro-phenoxy)-N-(5-hydroxy-methyl-adamantan-2-yl)-N-methyl-butyramide] the IC50 (11βHSD1 [1]) was 4 nM.
COC(=O)C12CC3CC(CN(C(=O)CCCOc4ccc(Cl)cc4Cl)C(C3)C1)C2 (stereo not shown) [Example 1-66, 4-[4-(2,4-Dichloro-phenoxy)-butyryl]-4-aza-tricyclo[4.3.1.1{3,8}]-undecane-1-carboxylic acid methyl ester] gave an IC50 (11βHSD1 [1]) of 3 nM.
O=C(CCCOc1ccc(Cl)cc1Cl)N1CC2CC3CC1CC(C(=O)O)(C3)C2 (stereo not shown) [Example 1-67, 4-[4-(2,4-Dichloro-phenoxy)-butyryl]-4-aza-tricyclo[4.3.1.1{3,8}]-undecane-1-carboxylic acid] gave an IC50 (11βHSD1 [1]) of 25 nM.
In the case of COC(=O)C12CC3CC(C1)C(NC(=O)CCCOc1ccc(Cl)cc1Cl)C(C3)C2 (stereo not shown) [Example 1-68, 4-[4-(2,4-Dichloro-phenoxy)-butyrylamino]-adamantane-1-carboxylic acid methyl ester], the IC50 (11βHSD1 [1]) is reported as 17 nM.
CN(C(=O)CCCOc1ccc(Cl)cc1Cl)C1CCC(S(N)(=O)=O)CC1 (stereo not shown) [Example 1-69, 4-(2,4-Dichloro-phenoxy)-N-methyl-N-(4-sulfamoyl-cyclohexyl)-butyramide] gave an IC50 (11βHSD1 [1]) of 2 nM.
In the case of CN(C(=O)CCCOc1ccc(Cl)cc1Cl)C1CCC(S(=O)(=O)N(C)C)CC1 (stereo not shown) [Example 1-70, 4-(2,4-Dichloro-phenoxy)-N-(4-dimethyl-sulfamoyl-cyclohexyl)-N-methyl-butyramide], the IC50 (11βHSD1 [1]) is reported as 479 nM.
For CN(C(=O)CCCOc1ccc(Cl)cc1Cl)C1CCC(S(=O)(=O)N(C)C)CC1 (stereo not shown) [Example 1-71, 4-(2,4-Dichloro-phenoxy)-N-(4-dimethyl-sulfamoyl-cyclohexyl)-N-methyl-butyramide], the IC50 (11βHSD1 [1]) was 21 nM.
Work on CCOC(=O)C12CCC(NC(=O)CCCOc3ccc(Cl)cc3Cl)(CC1)CC2 [Example 1-72, 4-[4-(2,4-Dichloro-phenoxy)-butyrylamino]-bicyclo[2.2.2]octane-1-carboxylic acid ethyl ester] yielded an IC50 (11βHSD1 [1]) of 198 nM.
For O=C(CCCOc1ccc(Cl)cc1Cl)NC12CCC(CO)(CC1)CC2 [Example 1-73, 4-(2,4-Dichloro-phenoxy)-N-(4-hydroxy-methyl-bicyclo[2.2.2]oct-1-yl)-butyramide], the IC50 (11βHSD1 [1]) was 1 nM.
In the case of CN(C(=O)CCCOc1ccc(Cl)cc1Cl)C1CCC(C(=O)O)CC1 (stereo not shown) [Example 1-74, 4-{[4-(2,4-Dichloro-phenoxy)-butyryl]-methyl-amino}-cyclo-hexanecarboxylic acid], the IC50 (11βHSD1 [1]) is reported as 809 nM.
O=C(CCCOc1ccc(Cl)cc1Cl)NC1CCC(CO)CC1 (stereo not shown) [Example 1-75, 4-(2,4-Dichloro-phenoxy)-N-(4-hydroxy-methyl-cyclohexyl)-butyramide] gave an IC50 (11βHSD1 [1]) of 27 nM.
CN(C(=O)CCCOc1ccc(Cl)cc1Cl)C1CCC(C(N)=O)CC1 (stereo not shown) [Example 1-76, 4-{[4-(2,4-Dichloro-phenoxy)-butyryl]-methyl-amino}-cyclo-hexanecarboxylic acid amide] gave an IC50 (11βHSD1 [1]) of 18 nM.
Work on CN(C(=O)CCCOc1ccc(Cl)cc1Cl)C1CCC(C(C)(C)O)CC1 (stereo not shown) [Example 1-78, 4-(2,4-Dichloro-phenoxy)-N-[4-(1-hydroxy-1-methyl-ethyl)-cyclohexyl]-N-methyl-butyramide] yielded an IC50 (11βHSD1 [1]) of 23 nM.
For CC(C)(O)C1CCC(NC(=O)CCCOc2ccc(Cl)cc2Cl)CC1 (stereo not shown) [Example 1-79, 4-(2,4-Dichloro-phenoxy)-N-[4-(1-hydroxy-1-methyl-ethyl)-cyclohexyl]-butyramide], the IC50 (11βHSD1 [1]) was 300 nM.
For CCOC(=O)C1CC2CC1CC2N(C)C(=O)CCCOc1ccc(Cl)cc1Cl (stereo not shown) [Example 1-80, 5-{[4-(2,4-Dichloro-phenoxy)-butyryl]-methyl-amino}-bicyclo[2.2.1]heptane-2-carboxylic acid ethyl ester], the IC50 (11βHSD1 [1]) was 700 nM.
Work on CC(C)(O)C12CC3CC(C1)C(NC(=O)CCCOc1ccc(Cl)cc1Cl)C(C3)C2 (stereo not shown) [Example 1-83, 4-(2,4-Dichloro-phenoxy)-N-[5-(1-hydroxy-1-methyl-ethyl)-adamantan-2-yl]-butyramide] yielded an IC50 (11βHSD1 [1]) of 9 nM.
CN(C(=O)CCCOc1ccc(Cl)cc1Cl)C1CC2CC1CC2CO (stereo not shown) [Example 1-84] gave an IC50 (11βHSD1 [1]) of 30 nM.
O=C(CCCOc1ccccn1)NC1C2CC3CC1CC(O)(C3)C2 (stereo not shown) [Example 1-87, N-(5-Hydroxy-adamantan-2-yl)-4-(pyridin-2-yloxy)-butyramide] showed an IC50 (11βHSD1 [1]) of 227 nM.
Work on CC(C)(CCOc1ccc(Cl)cc1Cl)C(=O)NC1C2CC3CC1CC(O)(C3)C2 (stereo not shown) [Example 2-1, 4-(2,4-Dichloro-phenoxy)-N-(5-hydroxy-adamantan-2-yl)-2,2-dimethyl-butyramide] yielded an IC50 (11βHSD1 [1]) of 2 nM.
In the case of CC(C)(CCOc1ccc(Cl)cc1Cl)C(=O)N1C2CCC1CC(O)C2 (stereo not shown) [Example 2-3, 4-(2,4-Dichloro-phen-oxy)-1-(3-hydroxy-8-aza-bicyclo[3.2.1]oct-8-yl)-2,2-dimethyl-butan-1-one], the IC50 (11βHSD1 [1]) is reported as 206 nM.
CC(C)(CCOc1ccc(Cl)cc1Cl)C(=O)NC1C2CC3CC1CC(CO)(C3)C2 (stereo not shown) [Example 2-4, 4-(2,4-Dichloro-phen-oxy)-N-(5-hydroxy-methyl-adamantan-2-yl)-2,2-dimethyl-butyramide] showed an IC50 (11βHSD1 [1]) of 3 nM.
O=C(NC1C2CC3CC1CC(O)(C3)C2)C1(CCOc2ccc(Cl)cc2Cl)CC1 (stereo not shown) [Example 2-5, 1-[2-(2,4-Dichloro-phen-oxy)-ethyl]-cyclo-pro-panecarboxylic acid (5-hydroxy-adamantan-2-yl)-amide] showed an IC50 (11βHSD1 [1]) of 4 nM.
For CC1(C)[C@@H](OC(=O)CCC(=O)O)CC[C@]2(C)[C@H]3C(=O)C=C4[C@@H]5C[C@@](C)(C(=O)O)CC[C@]5(C)CC[C@@]4(C)[C@]3(C)CC[C@@H]12 [carbenoxolone], the insulin sensitivity (11βHSD1 [2]) is given as “improves insulin sensitivity”.
